Reference: US4521335A, “Aglycone and pseudo-aglycones of the AAD 216 antibiotics” (SmithKline Beckman Corporation, priority 1984, dated 1985)
Values after ≈ are worked out from the molar mass of the structure shown.

Experiments:
[1] = system: Salmonella gallinarum SK & F BC595; experiment: microbe, parasite or virus in culture; type: cell-based; details: Salmonella enterica
Staph. aureus HH 127 = experiment: in vivo activity against intraperitoneal infections in mice; set-up: species or system mice infected with Staph. aureus; details: Staphylococcus aureus, HH127, sc
[2] = system: Staph. aureus SK & F 2612; experiment: MIC, standard microtiter assay; type: cell-based; details: Staphylococcus aureus
[3] = system: Pseudomonas aeruginosa HH63; experiment: MIC, standard microtiter assay; type: cell-based
Staph. aureus SK & F 910 = experiment: MIC, standard microtiter assay; type: cell-based
C. difficile SK & F 3098 = experiment: MIC, standard microtiter assay; type: cell-based; details: Clostridioides difficile
[4] = system: Proteus morgani SK & F 179; experiment: MIC, standard microtiter assay; type: cell-based
[5] = system: C. perfringens SK & F 2769; experiment: microbe, parasite or virus in culture; type: cell-based; details: Clostridium perfringens
[6] = system: Strep. faecalis SK & F 657; experiment: MIC, standard microtiter assay; type: cell-based; details: Enterococcus faecalis
[7] = system: Staph. aureus SK & F 209P; experiment: MIC, standard microtiter assay; type: cell-based; details: Staphylococcus aureus
[8] = system: Staph. aureus SK & F 2666; experiment: MIC, standard microtiter assay; type: cell-based; details: Staphylococcus aureus
[9] = system: Staph. aureus SK & F 2597; experiment: MIC, standard microtiter assay; type: cell-based; details: Staphylococcus aureus
[10] = system: Staph. aureus SK & F 2593; experiment: MIC, standard microtiter assay; type: cell-based; details: Staphylococcus aureus
C. difficile SK & F 3096 = experiment: MIC, standard microtiter assay; type: cell-based; details: Clostridioides difficile
B. fragilis SK & F 3060 = experiment: MIC, standard microtiter assay; type: cell-based; details: Bacteroides fragilis
B. thetaiotomicron H-145 = experiment: MIC, standard microtiter assay; type: cell-based
[11] = system: Staph. aureus SK & F 2620; experiment: MIC, standard microtiter assay; type: cell-based; details: Staphylococcus aureus
[12] = system: Staph. aureus SK & F 2621; experiment: MIC, standard microtiter assay; type: cell-based; details: Staphylococcus aureus
[13] = system: Staph. aureus SK & F 2616; experiment: MIC, standard microtiter assay; type: cell-based; details: Staphylococcus aureus
[14] = system: Staph. epidermidis SK & F 2479; experiment: MIC, standard microtiter assay; type: cell-based; details: Staphylococcus epidermidis
[15] = system: Staph. aureus SK & F 2677; experiment: MIC, standard microtiter assay; type: cell-based; details: Staphylococcus aureus
[16] = system: Strep. faecalis SK & F 34358; experiment: MIC, standard microtiter assay; type: cell-based; details: Enterococcus faecalis
B. loeochis SK & F 3087 = experiment: MIC, standard microtiter assay; type: cell-based; details: Table D, Anaerobes
Excerpt: The AAD 216 aglycone, the AAD 216 pseudo-aglycone, the AAD 216A pseudo-aglycone, the AAD 216B pseudo-aglycone and the AAD 216C pseudo-aglycone were neutralized with sodium bicarbonate prior to testing.

[17] = system: Bacteroides fragilis ATCC 25285; experiment: MIC, standard microtiter assay; type: cell-based; details: ATCC25285
[18] = system: Clostridium difficile SK & F 3062; experiment: MIC, standard microtiter assay; type: cell-based; details: Clostridioides difficile
[19] = system: Staph. aureus SK & F 2777; experiment: MIC, standard microtiter assay; type: cell-based; details: Staphylococcus aureus
[20] = system: Listeria monocytogenes SK & F 2255; experiment: MIC, standard microtiter assay; type: cell-based
E. coli SK & F 12140 = experiment: MIC, standard microtiter assay; type: cell-based; details: Escherichia coli
[21] = system: k. pneumoniae 4200 (SK & F 798); experiment: MIC, standard microtiter assay; type: cell-based; details: Klebsiella pneumoniae
[22] = system: inoculum (ileal or cecal cannula filtrate); experiment: swine in vitro model, growth promotant activity; details: experiment I, 5 hours, 37° C.; for GLU (% Control): glucose; for LAC (% Control): lactic acid; for LYS (% Control): lysine; for VFA (% Control): total volatile fatty acids
Staph. aureus SK & F 675 = experiment: MIC, standard microtiter assay; type: cell-based; details: Staphylococcus aureus

Structure (SMILES): CN[C@H](CC(C)C)C(=O)N[C@H]1C(=O)N[C@@H](CC(N)=O)C(=O)N[C@H]2C(=O)N[C@H]3C(=O)N[C@H](C(=O)N[C@H](C(=O)O)c4cc(O)cc(O)c4-c4cc3ccc4O)[C@H](O)c3ccc(c(Cl)c3)Oc3cc2cc(c3O[C@@H]2O[C@H](CO)[C@@H](O)[C@H](O)[C@H]2O[C@H]2C[C@](C)(N)[C@H](O)[C@H](C)O2)Oc2ccc(cc2Cl)[C@H]1O [Vancomycin, vancomycin]
- MIC [1]: 25 µg/mL (≈ 17.3 µM)
- ED50 (Staph. aureus HH 127; i.p. infection 46.8 LD50's Staph. aureus HH 127, s.c. 1 and 5 hours post infection): 1.56 mg/kg
- ED50 (Staph. aureus HH 127; second test, similar protocol, s.c.): 1.92 mg/kg
- MIC [2]: 1.6 µg/mL (≈ 1.1 µM)
- MIC [3]: > 100 µg/mL
- MIC (Staph. aureus SK & F 910; Staphylococcus aureus): 1.6 µg/mL (≈ 1.1 µM)
- MIC (Staph. aureus SK & F 910; Table A, Staph. aureus SK & F 910): 1.6 µg/mL (≈ 1.1 µM)
- MIC (Staph. aureus SK & F 910; Table E, Staph. aureus SK & F 910): 1.6 µg/mL (≈ 1.1 µM)
- MIC (C. difficile SK & F 3098): 2 µg/mL (≈ 1.38 µM)
- MIC [4]: > 100 µg/mL
- MIC [5]: 0.5 µg/mL (≈ 0.345 µM)
- MIC [6]: 3.1 µg/mL (≈ 2.14 µM)
- MIC [7]: 1.6 µg/mL (≈ 1.1 µM)
- MIC [8]: 1.6 µg/mL (≈ 1.1 µM)
- MIC [9]: 3.1 µg/mL (≈ 2.14 µM)
- MIC [10]: 1.6 µg/mL (≈ 1.1 µM)
- MIC (C. difficile SK & F 3096): 2 µg/mL (≈ 1.38 µM)
- MIC (B. fragilis SK & F 3060): 32 µg/mL (≈ 22.1 µM)
- MIC (B. thetaiotomicron H-145): > 32 µg/mL
- MIC [11]: 3.1 µg/mL (≈ 2.14 µM)
- MIC [12]: 1.6 µg/mL (≈ 1.1 µM)
- MIC [13]: 0.8 µg/mL (≈ 0.552 µM)
- MIC ([14]; Table A): 1.6 µg/mL (≈ 1.1 µM)
- MIC ([14]; Table E): 3.1 µg/mL (≈ 2.14 µM)
- MIC [15]: 1.6 µg/mL (≈ 1.1 µM)
- MIC [16]: 3.1 µg/mL (≈ 2.14 µM)
- MIC (B. loeochis SK & F 3087): 32 µg/mL (≈ 22.1 µM)
- MIC [17]: 32 µg/mL (≈ 22.1 µM)
- MIC ([18]; Table D, Anaerobes, Clostridium difficile SK & F 3062): 2 µg/mL (≈ 1.38 µM)
- MIC ([18]; Table F, C. difficile SK & F 3062): 0.5 µg/mL (≈ 0.345 µM)
- MIC [19]: 0.8 µg/mL (≈ 0.552 µM)
- MIC ([20]; Table A): 1.6 µg/mL (≈ 1.1 µM)
- MIC ([20]; Table E): 0.8 µg/mL (≈ 0.552 µM)
- MIC (E. coli SK & F 12140): > 100 µg/mL
- MIC [21]: > 100 µg/mL
- GLU (% Control) ([22]; 1.67 ppm): 100 % Control
- LAC (% Control) ([22]; 1.67 ppm): 99 % Control
- LYS (% Control) ([22]; 1.67 ppm): 83 % Control
- VFA (% Control) ([22]; 1.67 ppm): 92 % Control
- GLU (% Control) ([22]; 16.67 ppm): 189 % Control
- LAC (% Control) ([22]; 16.67 ppm): 59 % Control
- LYS (% Control) ([22]; 16.67 ppm): 42 % Control
- VFA (% Control) ([22]; 16.67 ppm): 280 % Control
- GLU (% Control) ([22]; 166.67 ppm): 190 % Control
- LAC (% Control) ([22]; 166.67 ppm): 64 % Control
- LYS (% Control) ([22]; 166.67 ppm): 48 % Control
- VFA (% Control) ([22]; 166.67 ppm): 250 % Control
- MIC (Staph. aureus SK & F 675; Table C, Methicillin Resistant): 1.6 µg/mL (≈ 1.1 µM)
- MIC (Staph. aureus SK & F 675; Table E): 3.1 µg/mL (≈ 2.14 µM)
